Experimental findings from patent US20220022513A1 (INTERNATIONAL FLAVORS & FRAGRANCES INC., priority 2018, published 2022) are described below.

Common to all, as to format: in vivo
Assay [1] in a line: Sensory evaluation of sebacic acid at different amounts in sugar water. As to the method: Sugar water (4% sucrose in drinking water) was prepared and used as a base solution.
The nature of assay [2]: Descriptive sensory evaluation (taste modulation) of sebacic acid in different applications. As to the method: Descriptive sensory evaluations were carried out using different amounts of sebacic acid in different applications.
Assay [3] in a line: Sensory evaluation of sebacic acid and traumatic acid in sweetened milk. Conditions: for sweetness and mouthfeel of sweetened milk: 2 ppm (each) in sweetened milk; for Taste Evaluation: 2 ppm (each) in sweetened milk (2% fat milk with 2% sucrose), versus base. As to the method:
Sweetened milk (2% fat milk with 2% sucrose) was prepared and used as a base solution (“base”).

Each structure is given as a SMILES string.

Consider `O=C(O)CCCCCCCCC(=O)O` [Sebacic acid, sebacic acid], for which the “Taste Evaluation” value is “Slight sweet and mouthfeel” in assay [1] (0.02 ppm in sugar water (4% sucrose in drinking water)); “Strong sweet and mouthfeel” in assay [1] (1000 ppm in sugar water (4% sucrose in drinking water)); “Increases fatty perception” in assay [2] (7.5 ppm in 3% Sugar-Sweetened Full Fat Milk); “Cuts sour end, increased” in assay [2] (7.5 ppm in Mixed Berry Yogurt Smoothie (1% Fat, 9% Sugar, 3% Protein)); “Sweet up front, more” in assay [2] (15 ppm in Strawberry Flavored Yogurt (5% Sugar, 0.4% Fat, 8.7 Grams Protein)); “Fatty and oily” in assay [2] (40 ppm in 3% Sugar + 0.05% Citric Acid Water Solution). Further, the “Taste Evaluation” value is “Fatty and oily” in assay [2] (40 ppm in Water, compared to same application without sebacic acid); “Sweeter and more mouthfeel” in assay [3]. For the same molecule, the “sweetness and mouthfeel of sweetened milk” value in assay [3] is “increased sweetness and mouthfeel”.
Take `O=C(O)/C=C/CCCCCCCCC(=O)O` [Traumatic Acid, traumatic acid]: in assay [3], the “sweetness and mouthfeel of sweetened milk” value was “increased sweetness and mouthfeel”; the “Taste Evaluation” value was “Sweeter and more mouthfeel”.
